Where “and” joins values, the source holds several entries; their conditions need not be identical. Equal values may be shown once.
Columns and labels:
[1] = for Triple point temperature: DSC
[2] = Molar enthalpy of transition or fusion; conditions: DSC
[3] = molar enthalpy of vaporization or sublimation; conditions: 298.15 K; Crystal 2; Static calorimetry

CC(C)(C)c1ccc2c(c1)Cc1cc(C(C)(C)C)ccc1-2 [2,7-di-tert-butylfluorene]
[1]
Conditions | vapor or sublimation pressure
349.14 K, Crystal 2, Calculated from knudsen effusion weight loss | 0.000106 kPa and 0.000105 kPa
351.14 K, Crystal 2, Calculated from knudsen effusion weight loss | 0.000136 kPa and 0.000135 kPa and 0.000132 kPa
353.3 K, Crystal 2, Calculated from knudsen effusion weight loss | 0.000169 kPa and 0.000171 kPa
355.28 K, Crystal 2, Calculated from knudsen effusion weight loss | 0.000213 kPa and 0.000215 kPa and 0.000217 kPa
357.2 K, Crystal 2, Calculated from knudsen effusion weight loss | 0.000271 kPa and 0.000267 kPa and 0.000261 kPa
359.19 K, Crystal 2, Calculated from knudsen effusion weight loss | 0.000321 kPa and 0.000336 kPa and 0.00033 kPa
361.14 K, Crystal 2, Calculated from knudsen effusion weight loss | 0.000408 kPa and 0.000409 kPa
363.27 K, Crystal 2, Calculated from knudsen effusion weight loss | 0.000509 kPa and 0.000507 kPa and 0.000514 kPa
368.2 K, Crystal 1, Calculated from knudsen effusion weight loss | 0.000805 kPa and 0.000816 kPa and 0.000828 kPa
368.55 K, Crystal 1, Closed cell (Static) method | 0.000873 kPa
369.13 K, Crystal 1, Calculated from knudsen effusion weight loss | 0.000886 kPa and 0.000888 kPa and 0.000889 kPa
370.26 K, Crystal 1, Calculated from knudsen effusion weight loss | 0.000975 kPa and 0.000979 kPa
370.54 K, Crystal 1, Closed cell (Static) method | 0.001055 kPa
371.21 K, Crystal 1, Calculated from knudsen effusion weight loss | 0.001079 kPa and 0.001082 kPa and 0.00107 kPa
372.21 K, Crystal 1, Calculated from knudsen effusion weight loss | 0.00118 kPa and 0.001178 kPa
372.5 K, Crystal 1, Closed cell (Static) method | 0.001246 kPa
374.5 K, Crystal 1, Closed cell (Static) method | 0.001492 kPa
376.45 K, Crystal 1, Closed cell (Static) method | 0.001778 kPa
378.41 K, Crystal 1, Closed cell (Static) method | 0.002106 kPa
380.4 K, Crystal 1, Closed cell (Static) method | 0.002524 kPa
382.38 K, Crystal 1, Closed cell (Static) method | 0.002965 kPa
384.34 K, Crystal 1, Closed cell (Static) method | 0.003492 kPa
386.3 K, Crystal 1, Closed cell (Static) method | 0.004126 kPa
388.27 K, Crystal 1, Closed cell (Static) method | 0.004862 kPa
390.24 K, Crystal 1, Closed cell (Static) method | 0.00567 kPa

[1], Closed cell (Static) method, Liquid
Conditions | vapor or sublimation pressure [kPa]
384.34 K | 0.003946
386.32 K | 0.004548
388.28 K | 0.005217
390.28 K | 0.005976
392.22 K | 0.006859
394.2 K | 0.007843
396.17 K | 0.008987
398.15 K | 0.01026
400.05 K | 0.01164
402.07 K | 0.01327
404.04 K | 0.01508

Conditions | Molar enthalpy of transition or fusion, [2] [kcal/mol] | Triple point temperature, [1] [K]
Crystal 1 | 3.73 | 395.9
Crystal 2 | 2.39 | 367

Conditions | molar enthalpy [kcal/mol]
[3] | 28.66

— the NIST ThermoML archive (doi:10.1016/j.jct.2016.05.007)
